Test results taken from ChEMBL document CHEMBL3808273, “Steroids from the rhizome of Anemarrhena asphodeloides and their cytotoxic activities” (Bioorg Med Chem Lett, 2016).

Experiments:
Bcap37 = assay: Cytotoxicity against human Bcap37 cells assessed as growth inhibition after 48 hrs by MTT assay; assay type: functional, cell-based; details: Bcap37, 48 h
[1] = Cytotoxicity against human Hep3B cells assessed as growth inhibition after 48 hrs by MTT assay; assay type: functional, cell-based, Hep 3B2
HepG2 = assay: Cytotoxicity against human HepG2 cells assessed as growth inhibition after 48 hrs by MTT assay; assay type: functional, cell-based; details: HepG2, 48 h
A549 = assay: Cytotoxicity against human A549 cells assessed as growth inhibition after 48 hrs by MTT assay; assay type: functional, cell-based; details: A549, 48 h
MCF7 = assay: Cytotoxicity against human MCF7 cells assessed as growth inhibition after 48 hrs by MTT assay; assay type: functional, cell-based; details: MCF7, 48 h

SMILES	IC50 (Bcap37)	IC50 [1]	IC50 (HepG2)	IC50 (A549)	IC50 (MCF7)
O=c1[nH]cc(F)c(=O)[nH]1 [FLUOROURACIL]	5.18 µM	23 µM			
C[C@@H]1CC[C@@]2(OC1)O[C@H]1C[C@H]3[C@@H]4CC[C@H]5C[C@@H](O[C@H]6O[C@@H](CO)[C@@H](O)[C@@H](O)[C@@H]6O[C@H]6O[C@@H](CO)[C@H](O)[C@@H](O)[C@@H]6O)[C@@H](O)C[C@]5(C)[C@H]4CC[C@]3(C)[C@H]1[C@@H]2C	> 50 µM	> 50 µM	> 50 µM	> 50 µM	> 50 µM
C[C@@H]1CC[C@]2(OC1)O[C@@H]1[C@@H](O)[C@@H]3[C@H]4CC[C@@H]5C[C@H](O[C@H]6O[C@@H](CO)[C@@H](O)[C@@H](O)[C@@H]6O[C@H]6O[C@@H](CO)[C@H](O)[C@@H](O)[C@@H]6O)CC[C@@]5(C)[C@@H]4CC[C@@]3(C)[C@@H]1[C@H]2C	> 50 µM	> 50 µM	> 50 µM	> 50 µM	> 50 µM
C[C@H]1CC[C@@]2(OC1)O[C@H]1C[C@H]3[C@@H]4CC[C@H]5C[C@@H](OC6O[C@H](CO)[C@@H](O)[C@H](O)[C@@H]6O[C@@H]6O[C@H](CO)[C@@H](O)[C@H](O)[C@H]6O)CC[C@]5(C)[C@H]4CC[C@]3(C)[C@H]1[C@@H]2C (some centres not stated)	9.5 µM	13.8 µM	6.42 µM	8.42 µM	25.5 µM
C[C@@H]1CO[C@]2(O[C@@H]3C[C@@H]4[C@H]5CC[C@@H]6C[C@H](O[C@H]7O[C@@H](CO)[C@@H](O)[C@@H](O)[C@@H]7O[C@H]7O[C@@H](CO)[C@H](O)[C@@H](O)[C@@H]7O)CC[C@@]6(C)[C@@H]5CC[C@@]4(C)[C@@H]3[C@H]2C)[C@H](O)C1	> 50 µM	> 50 µM	> 50 µM	> 50 µM	> 50 µM
C[C@@H](CCC1(O)O[C@H]2C[C@H]3[C@@H]4CC[C@H]5C[C@@H](O)CC[C@]5(C)[C@H]4CC[C@]3(C)[C@H]2[C@@H]1C)CO[C@@H]1O[C@H](CO)[C@@H](O)[C@H](O)[C@H]1O (some centres not stated)	> 50 µM	> 50 µM	> 50 µM	> 50 µM	> 50 µM
C[C@H]1CC[C@@]2(OC1)O[C@H]1C[C@H]3[C@@H]4CC[C@H]5C[C@@H](O)CC[C@]5(C)[C@H]4CC[C@]3(C)[C@H]1[C@@H]2C	> 50 µM	> 50 µM	> 50 µM	> 50 µM	> 50 µM
C[C@@H]1C(=O)O[C@H]2C[C@H]3[C@@H]4CC[C@H]5C[C@@H](O)[C@@H](O)C[C@]5(C)[C@H]4CC[C@]3(C)[C@H]21	> 50 µM	> 50 µM	> 50 µM	> 50 µM	> 50 µM
C[C@H]1CC[C@@]2(OC1)O[C@H]1C[C@H]3[C@@H]4CC[C@H]5C[C@@H](O[C@@H]6O[C@H](CO)[C@H](O)[C@H](O)[C@H]6O[C@@H]6O[C@H](CO)[C@@H](O)[C@H](O)[C@H]6O)CC[C@]5(C)[C@H]4CC[C@]3(C)[C@H]1[C@@H]2C	5.37 µM	0.35 µM	4.64 µM	7.33 µM	20.5 µM
CC(=O)C1=C[C@H](O)[C@H]2[C@@H]3CC[C@H]4C[C@@H](O[C@@H]5O[C@H](CO)[C@H](O)[C@H](O)[C@H]5O[C@@H]5O[C@H](CO)[C@@H](O)[C@H](O)[C@H]5O)CC[C@]4(C)[C@H]3CC[C@]12C	> 50 µM	> 50 µM	> 50 µM	> 50 µM	> 50 µM
C[C@@H]1C(=O)O[C@H]2C[C@H]3[C@@H]4CC[C@H]5C[C@@H](O[C@@H]6O[C@H](CO)[C@H](O)[C@H](O)[C@H]6O[C@@H]6O[C@H](CO)[C@@H](O)[C@H](O)[C@H]6O)CC[C@]5(C)[C@H]4CC[C@]3(C)[C@H]21	> 50 µM	> 50 µM	> 50 µM	> 50 µM	> 50 µM
C=C1CC[C@@]2(OC1)O[C@H]1C[C@H]3[C@@H]4CC[C@H]5C[C@@H](O[C@@H]6O[C@H](CO)[C@H](O)[C@H](O)[C@H]6O[C@@H]6O[C@H](CO)[C@@H](O)[C@H](O)[C@H]6O)CC[C@]5(C)[C@H]4CC[C@]3(C)[C@H]1[C@@H]2C	7.72 µM	9.98 µM	6.47 µM	5.62 µM	13.1 µM
